In PMC7397748, “Unlabeled lysophosphatidic acid receptor binding in free solution as determined by a compensated interferometric reader” (Journal of Lipid Research, 2020):

Target: T1, lysophosphatidic acid receptor 1 (LPA1) (Homo sapiens, UniProt Q92633)
T1 construct: gene LPAR1; human LPA1 with N-terminal HA tag (HA-LPA1), in B103 cell membrane nanovesicles
Assay: label-free free-solution assay with compensated interferometric reader (FSA-CIR), receptor nanovesicles, vector-subtracted
Type: binding
Details: read-out: KD ± SEM

T1 sequence (Q92633 whole entry): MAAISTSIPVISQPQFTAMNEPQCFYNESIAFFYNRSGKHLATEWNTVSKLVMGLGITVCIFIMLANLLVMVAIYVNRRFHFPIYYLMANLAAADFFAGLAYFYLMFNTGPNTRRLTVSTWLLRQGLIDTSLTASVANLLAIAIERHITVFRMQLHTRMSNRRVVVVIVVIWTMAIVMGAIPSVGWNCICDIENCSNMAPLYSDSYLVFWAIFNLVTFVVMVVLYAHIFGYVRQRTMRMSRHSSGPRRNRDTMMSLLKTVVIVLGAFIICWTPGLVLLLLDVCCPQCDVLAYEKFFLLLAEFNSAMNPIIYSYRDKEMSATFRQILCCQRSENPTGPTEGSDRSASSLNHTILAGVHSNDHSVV

## CCCCCCCCCCCCCCCC(=O)OC[C@@H](O)COP(=O)(O)O [16:0 LPA, 1-palmitoyl-LPA]
  Kd: 1.69 nM

## CCCCCCCC/C=C\CCCCCCCC(=O)OC[C@@H](O)COP(=O)(O)O [18:1 LPA, 1-oleoyl-LPA]
  Kd: 2.08 nM

## CCCCC/C=C\C/C=C\C/C=C\C/C=C\CCCC(=O)OC[C@@H](O)COP(=O)(O)O [20:4 LPA, 1-arachidonoyl-LPA]
  Kd: 2.59 nM
